# Where “and” joins values, the source holds several entries; their conditions need not be identical. Equal values may be shown once. Read-outs that look alike come from different tables or passages of the source.
# Test system: M. mycetomatis genome strain MM55
# Assay: CLSI M38-A2 based in vitro susceptibility screening (XTT or resazurin), growth at fixed concentration
# Type: cell-based, Madurella mycetomatis
# Settings: for activity at 25 µM / activity at 100 µM / Percent fungal survival at 100 µM: Madurella mycetomatis; for Percent fungal survival at 100 µM: read-out: Percentage survival at 100um, 100 uM A (second replicate column)
# [1] = 25 uM, mean of three replicates, read-out: Percentage survival at 25um, 25 uM mean
# [2] = 25 uM, replicate A, read-out: Percentage survival at 25um, 25 um A
# [3] = 25 uM, replicate B, read-out: Percentage survival at 25um, 25 uM B
# [4] = 25 uM, replicate C, read-out: Percentage survival at 25um, 25 uM C
# [5] = 100 uM, first replicate column, read-out: Percentage survival at 100um, 100 uM A
# [6] = 100 uM, mean of three replicates, read-out: Percentage survival at 100um, 100 uM mean
# [7] = 100 uM, second replicate column, read-out: Percentage survival at 100um, 100 uM A
# [8] = 100 uM, third replicate column, read-out: Percentage survival at 100um, 100 uM A
# [9] = 25 uM, mean, read-out: Percentage survival at 25um, 25 uM mean
# [10] = 100 uM, mean, read-out: Percentage survival at 100um, 100 uM mean
# [11] = 100 uM, replicate (first column), read-out: Percentage survival at 100um, 100 uM A
# [12] = 100 uM, replicate (second column), read-out: Percentage survival at 100um, 100 uM A
# [13] = 100 uM, replicate (third column), read-out: Percentage survival at 100um, 100 uM A
# [14] = 100 uM, replicate 1, read-out: Percentage survival at 100um, 100 uM A (first replicate column)
# [15] = 100 uM, replicate 3, read-out: Percentage survival at 100um, 100 uM A (third replicate column)
# [16] = 25 uM, mean of three, M. mycetomatis MM55, read-out: Percentage survival at 25um, 25 uM mean
# [17] = 25 uM, replicate A, M. mycetomatis MM55, read-out: Percentage survival at 25um, 25 um A
# [18] = 25 uM, replicate B, M. mycetomatis MM55, read-out: Percentage survival at 25um, 25 uM B
# [19] = 25 uM, replicate C, M. mycetomatis MM55, read-out: Percentage survival at 25um, 25 uM C
# [20] = 100 uM, mean of three, M. mycetomatis MM55, read-out: Percentage survival at 100um, 100 uM mean
# [21] = 100 uM, replicate 1, M. mycetomatis MM55, read-out: Percentage survival at 100um, 100 uM A (first replicate column)
# [22] = 100 uM, replicate 2, M. mycetomatis MM55
# [23] = 100 uM, replicate 3, M. mycetomatis MM55, read-out: Percentage survival at 100um, 100 uM A (third replicate column)
# [24] = 25 uM, mean of replicates, read-out: Percentage survival at 25um, 25 uM mean
# [25] = 100 uM, mean of replicates, read-out: Percentage survival at 100um, 100 uM mean
# [26] = 100 uM, replicate 1, read-out: Percentage survival at 100um, 100 uM A
# [27] = 100 uM, replicate 2, read-out: Percentage survival at 100um, 100 uM A
# [28] = 100 uM, replicate 3, read-out: Percentage survival at 100um, 100 uM A
structure (smiles),measurement,setting,value
COc1ccc(C2CNC(=O)C2)cc1OC1CCCC1 (centres unmarked) [MMV003738],activity at 25 µM,[1],84.1%
same,activity at 25 µM,[2],73%
same,activity at 25 µM,[3],88.3%
same,activity at 25 µM,[4],90.9%
same,activity at 100 µM,[5],78.1%
same,activity at 100 µM,[6],75%
same,activity at 100 µM,[7],63%
same,activity at 100 µM,[8],84%
CC[C@H](CO)Nc1nc(NCc2ccccc2)c2ncn(C(C)C)c2n1 [MMV003820],"Percentage survival at 100um, 100 uM A",,50.7482% and 60.4702%
same,activity at 25 µM,"read-out: Percentage survival at 25um, 25 uM B",62.4%
same,activity at 25 µM,"read-out: Percentage survival at 25um, 25 uM C",43.5%
same,activity at 25 µM,"read-out: Percentage survival at 25um, 25 uM mean",63.8%
same,activity at 25 µM,"read-out: Percentage survival at 25um, 25 um A",85.5%
same,activity at 100 µM,"read-out: Percentage survival at 100um, 100 uM A",48.1%
same,activity at 100 µM,"read-out: Percentage survival at 100um, 100 uM mean",53.1%
Nc1nc(O)ncc1F [MMV004508],activity at 25 µM,[9],84%
same,activity at 25 µM,[2],87.6%
same,activity at 25 µM,[3],87.9%
same,activity at 25 µM,[4],76.6%
same,activity at 100 µM,[10],89.4%
same,activity at 100 µM,[11],93.5%
same,activity at 100 µM,[12],81.4%
same,activity at 100 µM,[13],93.4%
Cc1[nH]c2ccccc2c1CCNCc1ccc(/C=C/C(=O)NO)cc1 [MMV010036],activity at 25 µM,[1],90.9%
same,activity at 25 µM,[2],98.2%
same,activity at 25 µM,[3],95.9%
same,activity at 25 µM,[4],78.7%
same,activity at 100 µM,[5],85.9%
same,activity at 100 µM,[6],77.1%
same,activity at 100 µM,[7],69.6%
same,activity at 100 µM,[8],75.6%
COc1ccc2nc(-c3ccccc3)cc(O)c2c1 [MMV011565],activity at 25 µM,[1],93.4%
same,activity at 25 µM,[2],91.4%
same,activity at 25 µM,[3],96.2%
same,activity at 25 µM,[4],92.7%
same,activity at 100 µM,[6],78.1%
same,activity at 100 µM,[14],74.5%
same,Percent fungal survival at 100 µM,"100 uM, replicate 2",80.2%
same,activity at 100 µM,[15],79.6%
O=C(O)c1cc(-c2ccccc2)nc2ccccc12 [MMV018362],activity at 25 µM,[1],91.7%
same,activity at 25 µM,[2],97.4%
same,activity at 25 µM,[3],94.7%
same,activity at 25 µM,[4],83%
same,activity at 100 µM,[5],91%
same,activity at 100 µM,[6],87.9%
same,activity at 100 µM,[7],79.7%
same,activity at 100 µM,[8],93.1%
CN1CCN(c2ccc3[nH]c(-c4ccc5[nH]c(-c6ccc(O)cc6)nc5c4)nc3c2)CC1 [MMV020752],activity at 25 µM,[16],67.2%
same,activity at 25 µM,[17],67.7%
same,activity at 25 µM,[18],71.6%
same,activity at 25 µM,[19],62.2%
same,activity at 100 µM,[20],24.3%
same,activity at 100 µM,[21],53.4%
same,Percent fungal survival at 100 µM,[22],14.6%
same,activity at 100 µM,[23],4.7%
Nc1nc(N)c2c(Sc3ccccc3)cccc2n1 [MMV021759],activity at 25 µM,[24],88.1%
same,activity at 25 µM,[2],63.3%
same,activity at 25 µM,[3],65.8%
same,activity at 25 µM,[4],135%
same,activity at 100 µM,[25],5.59%
same,activity at 100 µM,[26],-1.97%
same,activity at 100 µM,[27],5.6%
same,activity at 100 µM,[28],13.1%
Cc1nc(Nc2ccc(F)cc2)nc(N2CCc3ccccc3C2C)c1C (centres unmarked) [MMV030787],activity at 25 µM,[9],63.9%
same,activity at 25 µM,[2],74.6%
same,activity at 25 µM,[3],56.2%
same,activity at 25 µM,[4],61.1%
same,activity at 100 µM,[10],67.5%
same,activity at 100 µM,[11],53.1%
same,activity at 100 µM,[12],63.5%
same,activity at 100 µM,[13],86%
Nc1nnc(-c2ccc(Cl)cc2)s1 [MMV046261],activity at 25 µM,[24],82.4%
same,activity at 25 µM,[2],77.9%
same,activity at 25 µM,[3],83%
same,activity at 25 µM,[4],86.2%
same,activity at 100 µM,[25],69.4%
same,activity at 100 µM,[26],62.5%
same,activity at 100 µM,[27],72.1%
same,activity at 100 µM,[28],73.6%
NC(=O)c1c(N)sc2c1CCCCC2 [MMV056052],activity at 25 µM,[1],95.4%
same,activity at 25 µM,[2],93.9%
same,activity at 25 µM,[3],104%
same,activity at 25 µM,[4],87.9%
same,activity at 100 µM,[6],84.7%
same,activity at 100 µM,[14],86.2%
same,Percent fungal survival at 100 µM,"100 uM, replicate 2",80.1%
same,activity at 100 µM,[15],87.9%
CC1CN(c2ncnc3c2c(-c2ccccc2)cn3-c2ccc(F)cc2)CC(C)O1 (centres unmarked) [MMV093250],activity at 25 µM,[16],63.7%
same,activity at 25 µM,[17],69.5%
same,activity at 25 µM,[18],65.3%
same,activity at 25 µM,[19],56.2%
same,activity at 100 µM,[20],70%
same,activity at 100 µM,[21],65.7%
same,Percent fungal survival at 100 µM,[22],80.7%
same,activity at 100 µM,[23],63.6%

# Source: PMC8815882, “Screening the pandemic response box identified benzimidazole carbamates, Olorofim and ravuconazole as promising drug candidates for the treatment of eumycetoma” (PLoS Neglected Tropical Diseases, 2022)
